This note sets out measurements from ChEMBL document CHEMBL1201862, “PubChem BioAssay data set” (2004).

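Assay format: 96-well plates, 48-hour exposure. Abbreviation: GI50, concentration required for 50% inhibition of growth.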 The source made the active and inactive calls. No stated cut-off is given here; in the data, active = GI50 up to about 1.1 µM and inactive = higher.

Test systems include MOLT-4; SN12C; OVCAR-4; SNB-75; TK-10; BT-549; MDA-N; A549; NCI-H460; NCI-H23; M14; NCI/ADR-RES; HL-60; MDA-MB-435; HCC 2998; T47D; OVCAR-5; SF-539; Malme-3M; NCI-H522.
Experiment in all cases: inhibition of tumour cell growth, NCI panel, 48 h

Consider `CCOCC(=O)N[C@H]1CCc2cc(OC)c(OC)c(OC)c2-c2ccc(OC)c(=O)cc21`, for which the GI50 is 0.0231 µM (active) with MOLT-4; 0.0239 µM (active) with SN12C; 3.62 µM (inactive) in the experiment with OVCAR-4; < 0.0191 µM (active) in the experiment on SNB-75; 2.46 µM (inactive) in the experiment on TK-10; < 0.0321 µM (active) in the experiment with BT-549. Moreover, the GI50 in the experiment on MDA-N was 0.0122 µM (active); in the experiment with A549, 0.0211 µM (active); in the experiment on NCI-H460, 0.0165 µM (active); in the experiment with NCI-H23, 0.0132 µM (active); in the experiment with M14 it was 0.0179 µM (active); in the experiment on NCI/ADR-RES, 0.982 µM (active). Also, the GI50 was < 0.01 µM (active) in the experiment on HL-60; 0.0123 µM (active) in the experiment on MDA-MB-435; 0.0141 µM (active) in the experiment on HCC 2998; > 100 µM (inactive) in the experiment on T47D; 0.741 µM (active) in the experiment with OVCAR-5; 0.0148 µM (active) in the experiment on SF-539. Moreover, the results for the GI50 with Malme-3M and in the experiment on NCI-H522 were 0.0229 µM (active) and 0.0143 µM (active), respectively.

Consider `Cc1ccc2c(c1)c1ccc3c(c1n2C)C(=O)C=CC3=O`, for which the GI50 in the experiment on MOLT-4 was 0.76 µM (active); with SN12C, 3.52 µM (inactive); in the experiment on OVCAR-4 it was 2.32 µM (inactive); with SNB-75 it was > 10 µM (inactive); in the experiment on TK-10, 2 µM (inactive); in the experiment on BT-549, 1.36 µM (inactive). Further, the GI50 was 1.73 µM (inactive) in the experiment with MDA-N; > 10 µM (inactive) in the experiment on A549; > 10 µM (inactive) with NCI-H460; 2.62 µM (inactive) in the experiment on NCI-H23; 2.05 µM (inactive) with M14; 2.96 µM (inactive) in the experiment on NCI/ADR-RES. In addition, the GI50 is 0.75 µM (active) in the experiment on HL-60; 2.35 µM (inactive) with MDA-MB-435; 9.77 µM (inactive) with HCC 2998; 1.63 µM (inactive) in the experiment with T47D; > 10 µM (inactive) with OVCAR-5; 2.32 µM (inactive) with SF-539. In addition, the GI50 in the experiment with Malme-3M is 2 µM (inactive); in the experiment on NCI-H522, 1.23 µM (inactive).

In the case of `CC(C)C1CC[C@H](C)C[C@@H]1OC(=O)C(C(=O)O[C@H]1C[C@@H](C)CCC1C(C)C)C(O)[C@@H]1OC(C)(C)O[C@H]1C1COC(C)(C)O1` (stereo not given in full), the GI50 was 10.7 µM (inactive) with MOLT-4; 16.5 µM (inactive) in the experiment on SN12C; 26 µM (inactive) in the experiment on OVCAR-4; 15.7 µM (inactive) with SNB-75; 20 µM (inactive) in the experiment with TK-10; 19 µM (inactive) in the experiment on BT-549. In addition, the GI50 in the experiment on MDA-N was 18.5 µM (inactive); with A549 it was 22.3 µM (inactive); with NCI-H460 it was 15 µM (inactive); in the experiment with NCI-H23, 13.4 µM (inactive); with M14, 19 µM (inactive); in the experiment with NCI/ADR-RES it was 20.4 µM (inactive). Further, the GI50 was 16.7 µM (inactive) in the experiment on HL-60; 16.6 µM (inactive) in the experiment on MDA-MB-435; 13.8 µM (inactive) with HCC 2998; 13.1 µM (inactive) in the experiment with T47D; 17.3 µM (inactive) in the experiment with OVCAR-5; 26.8 µM (inactive) with SF-539. Further, the GI50 in the experiment on Malme-3M was 17.1 µM (inactive); in the experiment on NCI-H522 it was 1.58 µM (inactive).

For the compound `COc1ccc(-c2cn3c(nc4ccccc43)c(C)n2)cc1`, the GI50 was > 100 µM (inactive) with MOLT-4; > 77.1 µM (inactive) in the experiment on SN12C; 47.6 µM (inactive) with OVCAR-4; > 50.8 µM (inactive) with SNB-75; 58.9 µM (inactive) in the experiment with TK-10; 33.7 µM (inactive) in the experiment with BT-549. The GI50 in the experiment on MDA-N was > 100 µM (inactive); in the experiment with A549, 86.5 µM (inactive); with NCI-H460, 60.1 µM (inactive); in the experiment with NCI-H23 it was 50.4 µM (inactive); in the experiment with M14, > 100 µM (inactive); with NCI/ADR-RES, 33.6 µM (inactive). The GI50 in the experiment with HL-60 is > 56.1 µM (inactive); with MDA-MB-435, > 96.2 µM (inactive); in the experiment with HCC 2998, > 100 µM (inactive); with T47D it was 8.3 µM (inactive); in the experiment with OVCAR-5, > 78.5 µM (inactive); in the experiment with SF-539 it was 76.7 µM (inactive). Further, the figures for the GI50 with Malme-3M and in the experiment on NCI-H522 were 69.2 µM (inactive) and 39.1 µM (inactive), respectively.
